Measurements reported in US20260124237A1, “CARTILAGE REGENERATION COMPOSITION” (KOBAYASHI PHARMACEUTICAL CO., LTD., priority 2021, published 2026).

Key:
Assay type in all cases: cell-based
[1] = test system: Human iPS cell-derived mesenchymal stem cells; assay: Differentiation to cartilaginous cells and cartilage matrix production in two-dimensional culture (Alcian blue); settings: Table 2a: garcinia extract or glucosamine (B4) alone; about 10 days culture; Alcian blue OD 620 nm; control = 1
From the text: In accordance with PLOS ONE, (US), 2014, 9 (12), e112291. DOI: 10.1371/journal.pone.0112291 (hereinafter, described as “Document A”), mesenchymal stem cells were induced from human normal iPS cells via neural crest cells, added with an equivalent amount of a cell freezing damage protection liquid CP-1 (manufactured by KYOKUTO PHARMACEUTICAL INDUSTRIAL CO., LTD), and cryopreserved.
Human iPS cell-derived mesenchymal stem cells were thawed and grown, and seeded in a 96 well plate (manufactured by Corning) in 1×10^5 cells/well. After 24 hours, the culture supernatant was removed, and replaced with a culture medium to induce differentiation to cartilaginous cells in accordance with Document A. To the culture medium to induce differentiation to cartilaginous cells, the garcinia extract and/or the component (B) (components (B1) to (B4)) as test substances were added so that the final concentration was the concentration shown in Tables 1 to 3. No test substance was added to the control group. The cells were cultured for about 10 days, and then fixed with a 4% paraformaldehyde·phosphate buffer (manufactured by FUJIFILM Wako Pure Chemical Corporation). After fixed, the cells were stained with an Alcian blue solution (manufactured by MUTO PURE CHEMICALS CO., LTD.) for 1 hour, and the dye was eluted using a 6 M guanidine hydrochloride solution (manufactured by Tokyo Chemical Industry Co., Ltd.). The eluate was transferred to a 96 well plate, and the OD value of each well at 620 nm was measured with a microplate reader to measure the amount of matrix produced by differentiation-induced cartilaginous cells.

[2] = test system: human bone marrow-derived mesenchymal stem cells; assay: Induction of differentiation to cartilaginous cells in three-dimensional culture (safranin O area); settings: for Differentiated cartilaginous cell area ratio: control = 1; for activity to induce differentiation to cartilaginous cells (in words): summary of Tables 4 to 11
Protocol: In accordance with Tissue Engineering, (US), 2010, 16 (1), p 81-91. DOI: 10.1089=ten.tec.2008.0693, mesenchymal stem cells were isolated from human normal bone marrow in a dedicated culture medium, and then the cells were grown. The grown cells were recovered, added with an equivalent amount of a cell freezing damage protection liquid CP-1 (KYOKUTO PHARMACEUTICAL INDUSTRIAL CO., LTD), and cryopreserved.
It is known that cartilaginous cells dedifferentiate in two-dimensional culture. As a culture system of cartilaginous cells closer to nature, a technique called three-dimensional culture is adopted. The thawed and grown human bone marrow-derived mesenchymal stem cells were dispensed into 15 mL tubes (made of TPP) by 2.5×10^5 cells, and centrifuged at 1000 rpm for 3 minutes at room temperature. The supernatant was removed and replaced with 0.5 mL of a culture medium to induce differentiation to cartilaginous cells in accordance with Document A. At the same time, as test substances, the garcinia extract, HCA·Ca, and/or the component (B) (components (B1) to (B4)) were added at the concentration shown in Tables 4 to 11. After cultured for 21 days, the cells were fixed in a 4% paraformaldehyde·phosphate buffer for 12 hours, dehydrated in 70% ethanol, and then embedded in paraffin, and then specimens were prepared. In the prepared specimen, the acidic polysaccharides as a cartilage matrix was stained with safranin O, and then the morphology of differentiated cartilaginous cells was observed using an optical microscope (magnification: 10 times). Furthermore, regarding the area showing a red color by safranin O staining, the relative area (differentiated cartilaginous cell area ratio) was calculated using an image analysis software Image J such that the control (Comparative Example 1) had the area of 1.
Except that the component (component (B4)) shown in Table 12 (a) and Table 12 (b) was used as the component (B), and the addition amount of the component (A) and the component (B) (component (B4)) was as shown in Table 12 (a) and Table 12 (b), the same procedure as in Test example 2 was carried out to calculate the differentiated cartilaginous cell area ratio and measure the amount of GAG. The results of the differentiated cartilaginous cell area ratio are shown in Table 12 (a) and Table 12 (b), and the measurement results of the amount of GAG are shown in FIG. 5.

[3] = test system: human bone marrow-derived mesenchymal stem cells; assay: Cartilage matrix production activity (amount of GAG in pellets); settings: FIGS. 1 to 4; pellets after 21 days three-dimensional culture, papain digestion
Protocol: LLC is solubilized in 100 mM phosphate buffer pH 7.4, 5 mM L-cysteine hydrochloride monohydrate, and 10 mM EDTA), and then the amount of GAG (glycosaminoglycan) was measured using a GAG quantification kit (manufactured by Blyscan). The larger the amount of GAG, the larger the amount of cartilage matrix produced. […] The results of the differentiated cartilaginous cell area ratio are shown in Table 12 (a) and Table 12 (b), and the measurement results of the amount of GAG are shown in FIG. 5.

[4] = Table 12a, Test Example 3: HCA·Ca 25 μM or constituent sugar (B4) 2.5 μM alone
[5] = Table 7: HCA·Ca and/or glucosamine (B4), 21 days, safranin O red area
[6] = Table 6: garcinia extract and/or glucosamine (B4), 21 days, safranin O red area

Compound | Ratio of cartilage matrix production [1] | Differentiated cartilaginous cell area ratio [2, 4] | further results
N[C@H]1C(O)O[C@H](CO)[C@@H](O)[C@@H]1O (stereo partly shown) [compound 11, Glucosamine] | 1.01 |  | 
N[C@H]1C(O)O[C@H](CO)[C@@H](O)[C@@H]1O (stereo partly shown) [compound 13, Glucosamine] | 1.00 |  | 
Cl.N[C@H]1C(O)O[C@H](CO)[C@@H](O)[C@@H]1O (stereo partly drawn) [compound 40, D-(+)-glucosamine hydrochloride] |  | 0.6 | 
O=C([O-])C[C@@](O)(C(=O)[O-])[C@H](O)C(=O)[O-].O=C([O-])C[C@@](O)(C(=O)[O-])[C@H](O)C(=O)[O-].[Ca+2].[Ca+2].[Ca+2] [calcium hydroxycitrate, (−) Hydroxycitric acid-3 calcium] |  |  | activity to induce differentiation to cartilaginous cells (in words) [2]: exhibits an activity to induce differentiation to cartilaginous cells, the degree of which is limited; cartilage matrix production activity (amount of GAG, in words) [3]: exhibits a cartilage matrix production activity, the degree of which is limited
Cl.N[C@H]1C(O)O[C@H](CO)[C@H](O)[C@@H]1O (stereo partly drawn) [compound 44, D-(+)-galactosamine hydrochloride] |  | 0.7 | 
CC(=O)N[C@H]1C(O)O[C@H](CO)[C@@H](O)[C@@H]1O (stereo partly drawn) [compound 41, N-acetyl-D-glucosamine] |  | 1.8 | 
N[C@H]1C(O)O[C@H](CO)[C@@H](O)[C@@H]1O (stereo partly shown) [compound 12, Glucosamine] | 1.02 |  | 
CC(=O)N[C@H]1C(O)O[C@H](COS(=O)(=O)[O-])[C@H](O)[C@@H]1O.[Na+] (stereo partly drawn) [compound 46, Sodium N-acetyl-D-galactosamine 6-sulfate] |  | 1.4 | 
N[C@H]1C(O)O[C@H](CO)[C@@H](O)[C@@H]1O (stereo partly shown) [compound 10, Glucosamine] | 1.01 |  | 
N[C@H]1C(O)O[C@H](CO)[C@@H](O)[C@@H]1O (stereo partly shown) [compound 7, Glucosamine] | 1.01 |  | 
CC(=O)N[C@H]1C(O)O[C@H](CO)[C@H](O)[C@@H]1O (stereo partly drawn) [compound 45, N-acetyl-D-galactosamine] |  | 1 | 
O=C([O-])C[C@@](O)(C(=O)[O-])[C@H](O)C(=O)[O-].O=C([O-])C[C@@](O)(C(=O)[O-])[C@H](O)C(=O)[O-].[Ca+2].[Ca+2].[Ca+2] [compound 32, (−) Hydroxycitric acid-3 calcium] |  |  | Differentiated cartilaginous cell area ratio ([2]; Table 5: HCA·Ca and/or chondroitin sulfate (B1), 21 days, safranin O red area): 1.7; Differentiated cartilaginous cell area ratio [2, 5]: 1.7; Differentiated cartilaginous cell area ratio ([2]; Table 9: HCA·Ca and/or hyaluronic acid (B3), 21 days, safranin O red area): 3.5; Differentiated cartilaginous cell area ratio ([2]; Table 11: HCA·Ca and/or proteoglycan (B2), 21 days, safranin O red area): 1.5
O=C[C@H](O)[C@@H](O)[C@H](O)[C@H](O)C(=O)O [compound 43, D-glucuronic acid] |  | 0.7 | 
N[C@H]1C(O)O[C@H](CO)[C@@H](O)[C@@H]1O (stereo partly shown) [compound 14, Glucosamine] | 1.00 |  | 
O=C([O-])C[C@@](O)(C(=O)[O-])[C@H](O)C(=O)[O-].O=C([O-])C[C@@](O)(C(=O)[O-])[C@H](O)C(=O)[O-].[Ca+2].[Ca+2].[Ca+2] [compound 39, (−) Hydroxycitric acid-3 calcium] |  | 1.8 | 
CC(=O)N[C@H]1C(O)O[C@H](COS(=O)(=O)[O-])[C@@H](O)[C@@H]1O.[Na+] (stereo partly drawn) [compound 42, Sodium N-acetyl-D-glucosamine 6-sulfate] |  | 2 | 
N[C@H]1C(O)O[C@H](CO)[C@@H](O)[C@@H]1O (stereo partly shown) [compound 34, Glucosamine] |  |  | Differentiated cartilaginous cell area ratio [2, 6]: 0.2; Differentiated cartilaginous cell area ratio [2, 5]: 0.2
Sodium hyaluronate [hyaluronic acid] |  |  | activity to induce differentiation to cartilaginous cells (in words) [2]: almost no activity to induce differentiation to cartilaginous cells; cartilage matrix production activity (amount of GAG, in words) [3]: almost no activity to induce differentiation to cartilaginous cells
N[C@H]1C(O)O[C@H](CO)[C@@H](O)[C@@H]1O (stereo partly shown) [compound 9, Glucosamine] | 1.01 |  | 
N[C@H]1C(O)O[C@H](CO)[C@@H](O)[C@@H]1O (stereo partly shown) [compound 33, Glucosamine] |  |  | Differentiated cartilaginous cell area ratio [2, 6]: 0.1; Differentiated cartilaginous cell area ratio [2, 5]: 0.1
N[C@H]1C(O)O[C@H](CO)[C@@H](O)[C@@H]1O (stereo partly shown) [glucosamine, Glucosamine] |  |  | activity to induce differentiation to cartilaginous cells (in words) [2]: reduce the activity to induce differentiation to cartilaginous cells; cartilage matrix production activity (amount of GAG, in words) [3]: reduce the cartilage matrix production activity
N[C@H]1C(O)O[C@H](CO)[C@@H](O)[C@@H]1O (stereo partly shown) [compound 8, Glucosamine] | 1.01 |  | 
N[C@H]1C(O)O[C@H](CO)[C@@H](O)[C@@H]1O (stereo partly shown) [compound 6, Glucosamine] | 1.00 |  | 
